US12162866B1, “Crystal form of pyrazolyl-amino-pyrimidinyl derivative, and preparation method therefor and use thereof” (LYNK PHARMACEUTICALS CO., LTD., priority 2023, dated 2024)
Values after ≈ are worked out from the molar mass of the structure shown.

Assays:
TYK2 = TYK2 (Homo sapiens, UniProt P29597); test: migration detection kinase assay, TYK2; assay type: biochemical
keratinocytes = test: proliferation of keratinocytes; assay type: cell-based; settings: preclinical study
JAK1 = JAK1 (Homo sapiens, UniProt P23458); test: migration detection kinase assay, JAK1; assay type: biochemical
p-STAT signaling pathway = p-STAT signaling pathway induced by cytokines; settings: in vivo and in vitro
JAK2 = JAK2 (Homo sapiens, UniProt O60674); test: migration detection kinase assay, JAK2
[1] = phase II and phase III, treatment of AD; cited from earlier work
simulated dry grinding = assay type: physicochemical; settings: dry grinding for 3 min
[2] = press testing (crystal transformation under pressure); assay type: physicochemical; settings: 10 Mpa, 5 min
simulated wet grinding = assay type: physicochemical; settings: 3 min
[3] = stability investigation (influencing factor, accelerated, intermediate, long term); assay type: physicochemical
JAK3 = biological target: T1, JAK3 (Homo sapiens, UniProt P52333); test: migration detection kinase assay, JAK3; assay type: biochemical; settings: 1 mM ATP
T1 sequence (P52333 1-1124): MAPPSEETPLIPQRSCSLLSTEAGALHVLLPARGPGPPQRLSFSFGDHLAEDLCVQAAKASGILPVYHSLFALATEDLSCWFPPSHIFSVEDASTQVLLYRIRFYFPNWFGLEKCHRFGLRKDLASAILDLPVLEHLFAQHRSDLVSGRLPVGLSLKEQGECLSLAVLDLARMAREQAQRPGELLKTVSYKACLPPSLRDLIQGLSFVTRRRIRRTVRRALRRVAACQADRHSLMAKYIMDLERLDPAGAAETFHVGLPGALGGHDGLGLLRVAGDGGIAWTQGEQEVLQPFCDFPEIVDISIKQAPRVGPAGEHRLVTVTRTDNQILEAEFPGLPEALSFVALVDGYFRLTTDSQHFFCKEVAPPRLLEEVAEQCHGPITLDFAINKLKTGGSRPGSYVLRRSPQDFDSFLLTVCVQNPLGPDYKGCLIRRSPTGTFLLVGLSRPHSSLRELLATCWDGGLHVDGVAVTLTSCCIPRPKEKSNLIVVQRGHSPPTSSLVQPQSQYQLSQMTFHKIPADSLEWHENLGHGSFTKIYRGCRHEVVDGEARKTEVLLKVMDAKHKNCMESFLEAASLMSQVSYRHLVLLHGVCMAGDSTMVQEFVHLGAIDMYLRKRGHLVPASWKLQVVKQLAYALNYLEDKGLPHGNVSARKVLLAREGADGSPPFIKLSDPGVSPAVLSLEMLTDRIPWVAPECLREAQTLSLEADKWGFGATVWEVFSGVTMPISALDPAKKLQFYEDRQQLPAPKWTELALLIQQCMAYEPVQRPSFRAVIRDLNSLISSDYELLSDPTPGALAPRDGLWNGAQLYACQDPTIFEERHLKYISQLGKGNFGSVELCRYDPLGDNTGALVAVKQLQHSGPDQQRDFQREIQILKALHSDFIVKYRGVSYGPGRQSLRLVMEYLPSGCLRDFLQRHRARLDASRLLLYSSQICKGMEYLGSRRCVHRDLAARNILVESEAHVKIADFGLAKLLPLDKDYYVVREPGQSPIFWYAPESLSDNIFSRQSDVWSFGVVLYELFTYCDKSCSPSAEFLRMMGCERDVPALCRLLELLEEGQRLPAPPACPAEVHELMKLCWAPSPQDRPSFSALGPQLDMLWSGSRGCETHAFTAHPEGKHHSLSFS

[4] = water activity experiment at 25° C.; assay type: physicochemical; settings: for XRPD result: 25° C.
Excerpt: The resulting solid was filtered and subjected to XRPD characterization.

[5] = dynamic solubility in simulated gastrointestinal fluid; assay type: physicochemical; settings: for solubility at 1 h / solubility at 4 h / solubility at 24 h: 37° C.; for XRPD of remaining solid: after 24 h
Protocol: After 24 h, the pH of the suspension was determined. The remaining suspension was centrifuged, and the remaining solid was subjected to XRPD characterization.

hygroscopicity by DVS = assay type: physicochemical
[6] = fassif, thermodynamic from solid, simulated pre-meal intestinal fluid
[7] = fessif, thermodynamic from solid, simulated postprandial intestinal fluid
[8] = simulated gastric fluid, thermodynamic from solid, simulated gastric juice

TYK2, sequence (P29597 whole entry): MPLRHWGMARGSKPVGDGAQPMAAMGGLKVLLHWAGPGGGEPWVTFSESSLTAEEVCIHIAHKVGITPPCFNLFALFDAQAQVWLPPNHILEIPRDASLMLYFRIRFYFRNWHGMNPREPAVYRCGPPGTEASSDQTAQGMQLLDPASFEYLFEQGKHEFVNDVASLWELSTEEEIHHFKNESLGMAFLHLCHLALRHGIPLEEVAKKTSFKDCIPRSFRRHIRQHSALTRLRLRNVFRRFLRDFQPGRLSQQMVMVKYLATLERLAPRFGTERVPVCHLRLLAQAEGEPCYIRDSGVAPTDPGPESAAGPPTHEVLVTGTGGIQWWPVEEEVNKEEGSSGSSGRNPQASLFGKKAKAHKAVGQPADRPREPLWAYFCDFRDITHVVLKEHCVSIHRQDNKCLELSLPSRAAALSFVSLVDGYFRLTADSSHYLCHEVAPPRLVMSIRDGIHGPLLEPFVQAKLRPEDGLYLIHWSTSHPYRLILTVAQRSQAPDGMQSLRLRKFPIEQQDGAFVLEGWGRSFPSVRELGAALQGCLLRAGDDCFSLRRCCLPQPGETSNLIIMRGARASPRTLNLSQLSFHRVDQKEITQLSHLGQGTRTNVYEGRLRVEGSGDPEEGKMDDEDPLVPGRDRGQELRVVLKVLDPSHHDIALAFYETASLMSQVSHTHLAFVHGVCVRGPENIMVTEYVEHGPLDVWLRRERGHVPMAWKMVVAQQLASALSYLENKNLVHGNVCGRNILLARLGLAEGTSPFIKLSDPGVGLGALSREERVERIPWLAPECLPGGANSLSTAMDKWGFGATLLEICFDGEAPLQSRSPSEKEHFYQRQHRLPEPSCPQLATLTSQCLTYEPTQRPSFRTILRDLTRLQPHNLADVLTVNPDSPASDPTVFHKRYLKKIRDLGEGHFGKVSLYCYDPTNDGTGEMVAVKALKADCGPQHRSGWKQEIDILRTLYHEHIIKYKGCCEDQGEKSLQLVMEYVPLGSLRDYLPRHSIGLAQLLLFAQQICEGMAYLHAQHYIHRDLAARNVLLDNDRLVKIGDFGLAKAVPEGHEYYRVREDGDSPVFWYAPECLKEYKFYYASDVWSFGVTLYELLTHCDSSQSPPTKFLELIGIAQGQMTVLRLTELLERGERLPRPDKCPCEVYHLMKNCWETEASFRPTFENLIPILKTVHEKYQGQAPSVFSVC
JAK2, sequence (O60674 whole entry): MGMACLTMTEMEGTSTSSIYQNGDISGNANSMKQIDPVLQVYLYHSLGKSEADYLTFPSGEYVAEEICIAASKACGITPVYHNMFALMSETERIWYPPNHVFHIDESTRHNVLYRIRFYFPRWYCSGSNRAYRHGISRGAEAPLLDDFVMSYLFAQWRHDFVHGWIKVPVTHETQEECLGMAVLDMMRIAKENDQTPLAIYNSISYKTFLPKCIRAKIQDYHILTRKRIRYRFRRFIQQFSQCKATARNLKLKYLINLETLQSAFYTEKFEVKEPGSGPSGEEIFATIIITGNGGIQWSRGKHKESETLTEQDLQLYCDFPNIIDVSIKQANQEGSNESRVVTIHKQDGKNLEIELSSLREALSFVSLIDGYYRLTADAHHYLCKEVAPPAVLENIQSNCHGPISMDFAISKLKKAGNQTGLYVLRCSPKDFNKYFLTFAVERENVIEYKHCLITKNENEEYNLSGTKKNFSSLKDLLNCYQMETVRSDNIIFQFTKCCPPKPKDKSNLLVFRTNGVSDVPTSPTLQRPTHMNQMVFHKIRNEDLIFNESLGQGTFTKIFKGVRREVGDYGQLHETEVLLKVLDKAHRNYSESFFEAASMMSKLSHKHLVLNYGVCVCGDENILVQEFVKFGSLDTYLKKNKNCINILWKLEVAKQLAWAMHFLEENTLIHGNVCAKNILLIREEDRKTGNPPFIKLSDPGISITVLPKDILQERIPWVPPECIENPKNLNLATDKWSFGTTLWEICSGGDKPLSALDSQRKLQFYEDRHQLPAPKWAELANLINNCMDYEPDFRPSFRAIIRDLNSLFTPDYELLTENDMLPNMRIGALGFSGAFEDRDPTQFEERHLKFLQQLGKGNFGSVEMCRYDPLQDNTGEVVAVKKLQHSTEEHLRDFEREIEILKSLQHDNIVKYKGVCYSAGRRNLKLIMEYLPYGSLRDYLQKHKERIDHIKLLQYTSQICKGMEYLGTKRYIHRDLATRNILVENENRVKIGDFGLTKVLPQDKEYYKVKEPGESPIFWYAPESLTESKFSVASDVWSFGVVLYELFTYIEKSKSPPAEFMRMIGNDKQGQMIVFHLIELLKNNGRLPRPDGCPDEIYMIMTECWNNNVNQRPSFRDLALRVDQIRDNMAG
JAK1, sequence (P23458 whole entry): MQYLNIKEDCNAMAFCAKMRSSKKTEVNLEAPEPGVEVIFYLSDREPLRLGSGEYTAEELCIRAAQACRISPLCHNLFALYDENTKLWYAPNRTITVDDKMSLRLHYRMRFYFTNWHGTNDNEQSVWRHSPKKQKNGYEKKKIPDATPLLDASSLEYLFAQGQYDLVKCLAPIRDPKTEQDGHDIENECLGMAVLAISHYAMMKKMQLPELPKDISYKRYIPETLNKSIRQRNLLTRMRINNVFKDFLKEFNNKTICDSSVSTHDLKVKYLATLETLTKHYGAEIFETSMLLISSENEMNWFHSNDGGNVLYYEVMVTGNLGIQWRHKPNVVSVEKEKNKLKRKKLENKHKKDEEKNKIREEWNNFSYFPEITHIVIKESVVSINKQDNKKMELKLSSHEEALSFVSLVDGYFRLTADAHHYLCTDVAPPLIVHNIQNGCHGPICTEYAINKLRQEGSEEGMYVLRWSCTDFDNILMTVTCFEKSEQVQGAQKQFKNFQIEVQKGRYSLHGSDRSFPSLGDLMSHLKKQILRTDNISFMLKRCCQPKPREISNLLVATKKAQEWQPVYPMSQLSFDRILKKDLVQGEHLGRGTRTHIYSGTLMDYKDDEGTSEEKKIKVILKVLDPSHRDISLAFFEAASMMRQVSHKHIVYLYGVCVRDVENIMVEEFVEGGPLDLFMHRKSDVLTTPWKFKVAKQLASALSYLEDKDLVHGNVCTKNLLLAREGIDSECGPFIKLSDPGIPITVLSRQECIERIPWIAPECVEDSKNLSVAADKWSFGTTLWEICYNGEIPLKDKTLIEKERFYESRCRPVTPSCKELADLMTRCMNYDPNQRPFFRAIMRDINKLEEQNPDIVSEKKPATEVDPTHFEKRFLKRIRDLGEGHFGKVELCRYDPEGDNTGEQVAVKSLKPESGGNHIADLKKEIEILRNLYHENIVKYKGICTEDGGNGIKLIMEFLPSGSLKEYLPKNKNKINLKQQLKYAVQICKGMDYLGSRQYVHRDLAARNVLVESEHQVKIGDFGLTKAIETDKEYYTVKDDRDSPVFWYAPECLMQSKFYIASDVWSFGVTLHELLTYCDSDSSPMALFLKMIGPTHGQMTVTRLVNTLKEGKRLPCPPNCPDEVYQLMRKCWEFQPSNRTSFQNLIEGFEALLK

With Cc1cnc(Nc2cnn(C3CC(C)(C)OC(C)(C)C3)c2)nc1-c1ccc(C(=O)NCC#N)cc1 [LNK01004] the “inhibitory effect on TYK2” value (TYK2; preclinical study) was “strong inhibitory effect”, the “inhibition of proliferation of keratinocytes” value (keratinocytes) was “can also inhibit the proliferation of keratinocytes” and the “inhibitory effect on JAK1” value (JAK1; preclinical study) was “strong inhibitory effect”. The “inhibition of p-STAT signaling pathway induced by multiple cytokines” value (p-STAT signaling pathway) was “can inhibit p-STAT signaling pathway” and the “inhibitory effect on JAK2” value (JAK2; preclinical study) was “strong inhibitory effect”.
For N#CC[C@H](C1CCCC1)n1cc(-c2ncnc3[nH]ccc23)cn1 [Ruxolitinib], the tolerability [1] is given as “well tolerated”.
With Cc1cnc(Nc2cnn(C3CC(C)(C)OC(C)(C)C3)c2)nc1-c1ccc(C(=O)NCC#N)cc1 [crystal form I] the “change of crystal form after dry grinding” value (simulated dry grinding) was “The crystal form is not changed, and”, the “change of crystallinity after dry grinding” value (simulated dry grinding) was “the crystallinity is slightly reduced” and the XRPD after pressing [2] was “Crystal form I”. The “change of crystal form after pressing” value [2] was “The crystal form is not changed,”, the IC50 (TYK2; 1 mM ATP) was 0.001 µM and the “XRPD after wet grinding” value (simulated wet grinding; Ethanol) was “Crystal form I”. The “change of crystal form after wet grinding” value (simulated wet grinding; Ethanol) was “The crystal form is not changed, and”, the “change of crystallinity after wet grinding” value (simulated wet grinding; Ethanol) was “the crystallinity is slightly reduced” and the “XRPD after wet grinding” value (simulated wet grinding; Water) was “Crystal form I”. The “change of crystal form after wet grinding” value (simulated wet grinding; Water) was “The crystal form is not changed, and”, the “change of crystallinity after wet grinding” value (simulated wet grinding; Water) was “the crystallinity is slightly reduced” and the IC50 (JAK1; 1 mM ATP) was 0.01 µM. For the same molecule, the “stability: appearance, related substances, assay, moisture, crystal form, content, microbial limit” value ([3]; accelerated condition 40° C.±2° C./75%±5% RH, 6 months) was “microbial limit were not changed”, the “Conclusion on crystal form” value ([3]; accelerated, intermediate condition and long term tests) was “keeps stable” and the “stability: appearance, related substances, assay, moisture, crystal form, content” value ([3]; high humidity of 92.5% RH, 30 days) was “not changed”. The “stability: appearance, related substances, assay, moisture, crystal form, content” value ([3]; high temperature of 60° C., 30 days) was “not changed”, the “stability: appearance, related substances, assay, moisture, crystal form, content” value ([3]; illumination of 1×ICH (1.2×10^6 Lux·hr, 200 w·hr/m^2)) was “not changed” and the “Conclusion on crystal form” value ([3]; influencing factor test: high temperature, high humidity, illumination) was “keeps stable”. The “stability: appearance, related substances, assay, moisture, crystal form, content, microbial limit” value ([3]; long-term condition 25° C.±2° C./60%±5% RH, 18 months) was “microbial limit were not changed”, the IC50 (JAK3) was 0.275 µM and the XRPD result ([4]; Acetone (a.w. = 0), 10 days) was “Crystal form I”. The XRPD result ([4]; Acetone (a.w. = 0), 22 days) was “Crystal form I”, the XRPD result ([4]; Acetone/water 36:64 (a.w. = 0.9), 12 days) was “Crystal form I” and the XRPD result ([4]; Acetone/water 60.4:39.6 (a.w. = 0.8), 12 days) was “Crystal form I”. The XRPD result ([4]; Acetone/water 75.8:24.2 (a.w. = 0.7), 12 days) was “Crystal form I”, the XRPD result ([4]; Acetone/water 91:9 (a.w. = 0.6), 10 days) was “Crystal form I” and the XRPD result ([4]; Acetone/water 91:9 (a.w. = 0.6), 22 days) was “Crystal form I”. For the same molecule, the XRPD result ([4]; Acetone/water 94:6 (a.w. = 0.5), 10 days) was “Crystal form I”, the XRPD result ([4]; Acetone/water 94:6 (a.w. = 0.5), 22 days) was “Crystal form I” and the XRPD result ([4]; Acetone/water 97:3 (a.w. = 0.3), 10 days) was “Crystal form I”. For the same molecule, the XRPD result ([4]; Acetone/water 97:3 (a.w. = 0.3), 22 days) was “Crystal form I”, the XRPD result ([4]; Acetone/water 99:1 (a.w. = 0.1), 10 days) was “Crystal form I” and the XRPD result ([4]; Acetone/water 99:1 (a.w. = 0.1), 22 days) was “Crystal form I”. The XRPD result ([4]; Water (a.w. = 1), 10 days) was “Crystal form I”, the XRPD result ([4]; Water (a.w. = 1), 22 days) was “Crystal form I” and the “crystal form stability over water activity range” value ([4]; up to 22 days, water activity range 1% to 100%) was “not transformed into a hydrate or other crystal forms”. It also gave a solubility at 1 h [5, 6] of 100 µg/mL (≈ 212 µM), a solubility at 4 h [5, 6] of 111 µg/mL (≈ 234 µM) and a solubility at 24 h [5, 6] of 120 µg/mL (≈ 253 µM). It also gave a solubility at 1 h [5, 7] of 389 µg/mL (≈ 822 µM), a solubility at 4 h [5, 7] of 474 µg/mL (≈ 1000 µM) and a solubility at 24 h [5, 7] of 627 µg/mL (≈ 1320 µM). It also gave a solubility at 1 h [5, 8] of 97.4 µg/mL (≈ 206 µM), a solubility at 4 h [5, 8] of 92.3 µg/mL (≈ 195 µM) and a solubility at 24 h [5, 8] of 102 µg/mL (≈ 215 µM). For the same molecule, the “XRPD of remaining solid” value ([5]; simulated gastric juice) was “Crystal form I”, the solubility ([5]; simulated gastrointestinal fluid, 37 °C, fassgf or other biorelevant, thermodynamic from solid, summary statement) was > 8 µg/mL and the “XRPD of remaining solid” value ([5]; simulated postprandial intestinal fluid) was “Crystal form I”. The “XRPD of remaining solid” value ([5]; simulated pre-meal intestinal fluid) was “Crystal form I”, the “pH after 24 h” value ([5]; suspension in simulated gastric juice) was 2.1 (simulated and the “pH after 24 h” value ([5]; suspension in simulated postprandial intestinal fluid) was 5.1 (simulated. The “pH after 24 h” value ([5]; suspension in simulated pre-meal intestinal fluid) was 6.6 (simulated, the IC50 (JAK2) was < 0.00051 µM and the “hygroscopicity” value (hygroscopicity by DVS) was “no obvious hygroscopicity”. The “Hygroscopicity, weight gain (DVS)” value (hygroscopicity by DVS; under 95% RH) was “Weight gain of 0.9%”.
